The text below walks through data of patent publication EP0773292A1, “Immortalised embryonic hippocampal cells and their use” (BAYER AG, priority 1995, dated 1997).

Assay type in all cases: cell-based, murine
For assay [1], the system named is HNMMCV13.1.E. The assay can be described thus: Electrophysiology: whole-cell patch-clamp, ligand-activated currents. The note with it: 13.1.E; membrane potential clamped to -70mV. The protocol: (§1) Electrophysiological setup: Membrane currents were measured with the patch-clamp technique in the whole-cell recording configuration (Hamill et al. 1981, Pfluegers Arch. 391:85-100). Current signals were amplified with conventional electronics (EPC-9 amplifier, HEKA Elektronik GmbH, Lambrecht, Germany), filtered at 10kHz, and sampled at 5 kHz by an interface connected to an IBM AT-compatible computer system, which also served as a stimulus generator.
(§2) Solutions and electrodes: The standard bathing solution contained (in mM): Nacl 150, KCL 5, MgCl2 1.8, HEPES 5, and glucose 10. In some experiments an equimolar amount of NaCl was replaced by 5mM BaCl2. Recording pipettes had resistances about 5MΩ (Hilgenberg, Malsfeld, Germany). The pipettes contained (in mM): KCL 140, CaCl2 0.5, EGTA 5, MgCl2 2, and HEPES 10. The pH was adjusted to 7.4. In some experiments the pipette solution was designed to minimize the contribution of voltage-activated currents. In this case, investigating the ligand-activated currents, the pipette solution contained (in mM): CsCl 140, EGTA 10, and HEPES 10.
(§3) Ligands were dissolved in the extracellular saline solution and applied via an U-tube application system. To record ligand-induced currents, the membrane potential was clamped to -70mV. For measurements of voltage-activated currents, cells were held at -70mV and every second the membrane was stepped through a 50 msec. de- or hyperpolarising test pulse to a potential between -170 and +20 mV.
(In general: The patch-clamp technique gives a direct electrical read-out from membranes.)

For a further assay, the system named is HC e/n XVB cells. Described as above. The note with it: for ligand-activated currents: membrane potential clamped to -70mV. Here is the method: as §1, §2, §3
For assay [2], the system named is v-myc-expressing lines and clones. The assay is described as follows: Induction of differentiation. The note with it: 1mM dbcAMP. Here is the method: For experiments in the presence of growth factors or other differentiation inducing agents, the primary cell cultures or the immortalised cell lines were cultured in the presence of one or a combination of the following: β-FGF, 1ng/ml, (Collaborative Research), EGF; 5 ng/ml or 10 ng/ml, (Collaborative Research), NGF (10 ng/ml, Collaborative Reasearch), dibutyryl cyclic adenosine monophosphate (dbcAMP, 1mM, Sigma, Heidelberg), retinoic acid (5 µM; Sigma), IL-7 (50 U/ml), TGFα (5ng/ml).
To induce differentiation in vitro several combinations of the following factors were used: retinoic acid (RA, 10 µM), NGF, β-FGF, EGF, IL-7, TGFα, dbcAMP (1mM). In addition the effect of co-culture with cortical glial cells originating from postnatal day 0 to 1 and granule neurons originating from postnatal day 6 mice was investigated.

Assay [3] has as its system HNMMCV14.1.A. The assay can be described thus: Electrophysiology: whole-cell patch-clamp, ligand-activated currents. The protocol: as §1, §2, §3
The next assay has as its system HNMMCV11.2.0. The assay can be described thus: Ca2+-imaging (Fura-2), rise in intracellular calcium. The protocol: (§4) Fluorescent Probe: Dynamic changes of intracellular calcium concentration were measured using the Fura-2 fluorescent probe (Roe et al. 1990, Cell Calcium 11:63-73). This fluorescent dye was chosen because of its selectivity, high quantum yield and extinction co-efficient. Fura-2 permeates the living cell as a acetoxymethylester and becomes trapped within the cell after hydrolysis by intracellular esterases. The calcium-sensitive free acid of Fura-2 is able to bind to calcium ions inside the cell. Fura-2 has an excitation maximum at 380 nm and the Fura2/calcium complex peaks at 340 nm. A change in intracellular calcium concentration was calculated by recording fluorescent video images at wavelengths of 340nm and 380nm excitation and 510nm emission and by dividing the grey values of the digitized video images of 380nm from 340nm.
(§5) Loading cells with Fura-2: A stock solution with 2mM Fura-2-acetoxymethylester in dimethylsulfoxide (DMSO) was diluted to 5-10 µM with serum free Minimal Essential Medium (MEM, Gibco) containing 1.5% bovine serum albumin and 5 mM calcium chloride. The cells were incubated in a Falcon 96 well plate for 45-60 minutes at 37°C. Subsequently the cells were washed twice in N-(2-Hydroxyethyl)piperazine-N'-(2-ethanesulfonic acid) (HEPES, 5mM) buffered Tyrode solution (HEPES buffered salt solution containing 130 mM NaCl, 5 mM KCl, 2 mM CaCl2, 1 mM MgCl2, 5mM NaHCO3, 11 mM Glucose).
(§6) Imaging procedure: 100 µl of Tyrode buffer was added to the plate wells and the cells were sequencially exposed to light at 340 nm and 380 nm under a fluorescent microscope (Nikon Diaphot). The exposition time was 100 ms. A series of video images at 3 second intervals was acquired and stored as digitised pictures in the image boards of an image analysis computer (Leica, Quantimet 570). After the acquisition of 8 images the test substances were applied. The grey levels of the cells, which correspond to the fluorescence intensity, were measured in the recorded video images. The ratio was determined by dividing the measured grey levels of the "380 nm images" by the grey levels of the "340 nm images" either from averaged images or from individual cells. For averaged results, the grey levels were measured over the whole images.
(§7) The cells were loaded with Fura 2/AM between day 3 and 7 in culture. A number of agonists were tested for their ability to activate specific receptors on the cell surface which leads to a rise in intracellular calcium. The rise in calcium concentration in the cytoplasm can occur after activation of specific calcium channels in the cell membrane, after activation of neurotransmitter receptors directly coupled to ion channels that are permeable to calcium ions (i.e. NMDA or AMPA type glutamate receptors), or by activation of receptors, which propagate the signal through the activation of specific G-proteins, which regulate the activity of different enzymes in the interior of the cell (Connor, Cell Calcium 14 (1993), 185-200; Crouch and Hendry, Medical Res. Rev. 13 (1993), 105-123). The activation of phospholipase C generates the second messengers diacylglycerol and inositoltriphosphate from phospholipids in the cell membrane. The binding of inositoltriphosphate to receptors localised on internal vesicles which store calcium ions leads to a transient rise in the concentration of calcium ions in the cytoplasm (Berridge, M.J. 1993, Nature 361: 315-325).
(Calcium flux is commonly read through the fluorescence of an indicator in the cells.)

For the next assay, the system named is HC e/n XV.B cells. The description is as above. Here is the method:
as §4, §5, §6, §7

The subject of assay [4] is HNMMCV13.1.E. Described as above. The protocol: as §4, §5, §6, §7
Assay [5] concerns HNMMCV14.1.A. Described as above. Here is the method:
as §4, §5, §6, §7

Another assay concerns HNMMCV13.1.F. Described as above. The protocol: as §4, §5, §6, §7

Turning to `N[C@@H](CCC(=O)O)C(=O)O` [Glutamate, L-glutamate], the ligand-activated currents result in the assay with HNMMCV13.1.E [1] is given as “+ (+: 10-30% positive cells)”; in the assay on HC e/n XVB cells (XV. B (with EGF, undifferentiated)), “-”; with HC e/n XVB cells (XV. B/ - EGF (differentiated)), “++ (++: 30-70% positive cells)”.
Turning to `CCCC(=O)Nc1ncnc2c1ncn2[C@@H]1O[C@@H]2COP(=O)(O)O[C@H]2[C@H]1OC(=O)CCC` [dbcAMP, dibutyryl cyclic adenosine monophosphate], the “expression of MAP-2” value in [2] (cell line HNMMCV11.2.) is listed as “induction of the expression of MAP-2”. Also, the “differentiation of the cells” value in [2] (v-myc-expressing lines and clones) was “induced a partial differentiation”.
As for `C=C(C)[C@H]1CN[C@H](C(=O)O)[C@H]1CC(=O)O` [Kainate, kainic acid], the “I/V curve of the ligand response” value in the assay with HC e/n XVB cells was “linear”. Moreover, the “ligand induced inward currents” value in the assay with HC e/n XVB cells is on record as “evoked responses with different peak amplitudes”. For the same compound, in the assay on HC e/n XVB cells, the “reversal potential of the ligand-activated current” value came to 0 mV. For the same compound, the ligand-activated currents result with HNMMCV14.1.A [3] is “+ / -”. The “transient calcium currents after the application of agonists and antagonists” value with HNMMCV11.2.0, in the assay with HNMMCV13.1.E [4], in the assay with HNMMCV14.1.A [5] and in the assay on HNMMCV13.1.F was “-” throughout. The “transient rise in intracellular calcium concentration” value is reported as “did not result in a transient rise in intracellular calcium concentrations” in the assay with HNMMCV11.2.0; “reproducible calcium signal” in the assay on HC e/n XV.B cells; “did not result in a transient rise in intracellular calcium concentrations” in the assay with HNMMCV13.1.E [4]; “did not result in a transient rise in intracellular calcium concentrations” in the assay with HNMMCV14.1.A [5]; “did not result in a transient rise in intracellular calcium concentrations” in the assay on HNMMCV13.1.F.
